Measured values published in patent US12024512B2, “Cocrystal” (TAKEDA PHARMACEUTICAL COMPANY LIMITED, priority 2016, dated 2024).
In brackets after ≈: the same amount, converted by molar mass.

How the values were obtained:
Format in all cases: physicochemical
[1] = Recrystallization experiment: crystal form of precipitate from organic solvent; details: dissolved at 55° C., cooled to 5° C.
Experimental: (§1) Powder X-ray diffraction measurement was performed using Cu-Kα radiation and measured by horizontal multipurpose X-ray diffraction system Ultima IV manufactured by Rigaku Corporation. Differential scanning calorimetric or thermogravimetric measurement was performed using DSC1/700/903-2 manufactured by Mettler Toledo or TGA/DSC1/LF/629-2 manufactured by Mettler Toledo and measured at temperature rise rate 5° C./min. Infrared spectrum was measured using Fourier transform infrared spectrophotometer Shimadzu IR Prestige-21 manufactured by Shimadzu Corporation and mounting Dura Sample IR II manufactured by Smiths Detection and by a total reflection method absorption measurement method at resolution 4 cm^−1. Raman spectroscopy was measured using RXN2 manufactured by Kaiser Optical Systems and a laser light source at excitation wavelength 1064 nm. Single crystal X-ray diffraction was measured using Cu-Kα radiation and curved imaging plate single crystal automatic X-ray structure analyzer R-AXIS RAPID II manufactured by Rigaku Corporation. Initial phase was determined by the direct method and the structure was refined by SHELXL-97. […] Intrinsic dissolution rate measurement was evaluated using a compression-molded disc of a crystal powder alone and in 20 mmoL/L sodium phosphate buffer (pH 6.8) containing 0.2% (w/v) sodium lauryl sulfate and by a rotating disc method (rotating speed: 100 rpm). Dissolution test was performed using a powder obtained by physically mixing a crystal powder and lactose in the same weight as the crystal powder and evaluated in Fasted State Simulated Intestinal Fluid (FaSSIF) at 37° C. by a rotating paddle method (paddle rotating speed: 50 rpm). The drug concentration of a solution was determined by liquid chromatography using Alliance HPLC system e2695 and detector 2789 manufactured by Waters (separation column: YMCPackPro C18 4.6 mm[…]×150 mm, temperature: 40° C., mobile phase: 20 mmol/L sodium phosphate buffer (pH 6.8)/acetonitrile=60/40 (v/v), flow rate: 1 mL/min, ultraviolet absorption detection wavelength: 240 nm). As slurry experiment, a test solvent was added to a crystal powder, the mixture was stirred at about 25° C. for 24 hr in suspension, the obtained residue was collected by filtration, and the crystal form was confirmed by powder X-ray diffraction measurement or Raman spectroscopy. In the recrystallization experiment, crystals were dissolved in ethanol, acetone, 2-propanol, tetrahydrofuran, methyl ethyl ketone, ethyl acetate, isopropyl acetate, anisole or isobutyl acetate at 55° C., filtered through a filter, allowed to cool to 5° C. or allowed to cool to 5° C. after adding n-heptane to the solution, and the crystal form of the obtained precipitate was confirmed by powder X-ray diffraction measurement or Raman spectroscopy.

[2] = Slurry experiment: crystal form of residue after stirring in test solvent; details: about 25° C., 24 hr
Experimental: as §1

[3] = Solubility in aqueous solutions after shaking each crystal at 37° C. for 24 hr; details: thermodynamic from solid, 24 hr shaking
[4] = 2-propanol/n-heptane, n-heptane added
[5] = acetone/n-heptane, n-heptane added
[6] = anisole/n-heptane, n-heptane added
[7] = ethanol/n-heptane, n-heptane added
[8] = ethyl acetate/n-heptane, n-heptane added
[9] = methyl ethyl ketone/n-heptane, n-heptane added
[10] = tetrahydrofuran/n-heptane, n-heptane added
[11] = isobutyl acetate/n-heptane, n-heptane added
[12] = isopropyl acetate/n-heptane, n-heptane added

Row | SMILES | Crystal form of precipitate obtained by recrystallization experiment ([1]; 2-propanol) | Crystal form of precipitate obtained by recrystallization experiment [1, 4] | Crystal form of precipitate obtained by recrystallization experiment ([1]; acetone) | Crystal form of precipitate obtained by recrystallization experiment [1, 5] | Crystal form of precipitate obtained by recrystallization experiment ([1]; anisole) | Crystal form of precipitate obtained by recrystallization experiment [1, 6] | Crystal form of precipitate obtained by recrystallization experiment ([1]; ethanol) | Crystal form of precipitate obtained by recrystallization experiment [1, 7] | Crystal form of precipitate obtained by recrystallization experiment ([1]; ethyl acetate) | Crystal form of precipitate obtained by recrystallization experiment [1, 8] | Crystal form of precipitate obtained by recrystallization experiment ([1]; isobutyl acetate) | Crystal form of precipitate obtained by recrystallization experiment ([1]; isopropyl acetate) | Crystal form of precipitate obtained by recrystallization experiment ([1]; methyl ethyl ketone) | Crystal form of precipitate obtained by recrystallization experiment [1, 9] | Crystal form of precipitate obtained by recrystallization experiment ([1]; tetrahydrofuran) | Crystal form of precipitate obtained by recrystallization experiment [1, 10] | Crystal form of residue after slurry experiment ([2]; 2-propanol) | Crystal form of residue after slurry experiment ([2]; acetone) | Crystal form of residue after slurry experiment ([2]; anisole) | Crystal form of residue after slurry experiment ([2]; distilled water) | further results
1 | CCc1cc2c(c(OCC(F)(F)F)c(C(=O)NC3CCN(C(=O)CO)CC3)n2C)c(=O)n1CC(=O)c1ccccc1 [anhydrous crystal of free form, 6-ethyl-N-[1-(hydroxyacetyl)piperidin-4-yl]-1-methyl-4-oxo-5-(2-oxo-2-phenylethyl)-3-(2,2,2-trifluoroethoxy)-4,5-dihydro-1H-pyrrolo[3,2-c]pyridine-2-carboxamide, reference compound] | free form (solvate) | free form (solvate) | free form (solvate) | free form (solvate) | free form (solvate) | free form (solvate) | free form (solvate) | free form (solvate) | free form (solvate) | free form (solvate) | free form solvate) | free form (solvate) | free form (solvate) | free form (solvate) | free form (solvate) | free form (solvate) | free form (solvate) | free form (solvate) | free form (solvate) | free form (solvate) | Crystal form of residue after slurry experiment ([2]; ethanol): free form (solvate); Crystal form of residue after slurry experiment ([2]; ethyl acetate): free form (solvate); Crystal form of residue after slurry experiment ([2]; methyl ethyl ketone): free form (solvate); Crystal form of residue after slurry experiment ([2]; tetrahydrofuran): free form (solvate); solubility at 24 hr ([3]; Fasted State Simulated Intestinal Fluid (FaSSIF), FaSSIF): 23.9 ± 0.1 µg/mL (≈ 41.5 µM); solubility at 24 hr ([3]; Fed State Simulated Intestinal Fluid (FeSSIF), FeSSIF): 88.7 ± 0.7 µg/mL (≈ 154 µM); solubility at 24 hr ([3]; Japanese Pharmacopoeia 1st fluid for dissolution test (JP1), simulated gastric fluid, JP1 (Japanese Pharmacopoeia 1st fluid for dissolution test)): 20.6 ± 0.4 µg/mL (≈ 35.7 µM); solubility at 24 hr ([3]; distilled water, concentration of API): 21.5 ± 0.5 µg/mL (≈ 37.3 µM)
2 | CCc1cc2c(c(OCC(F)(F)F)c(C(=O)NC3CCN(C(=O)CO)CC3)n2C)c(=O)n1CC(=O)c1ccccc1.O=C(O)C(O)C(O)C(=O)O [cocrystal with L-tartaric acid, cocrystal of 6-ethyl-N-[1-(hydroxyacetyl)piperidin-4-yl]-1-methyl-4-oxo-5-(2-oxo-2-phenylethyl)-3-(2,2,2-trifluoroethoxy)-4,5-dihydro-1H-pyrrolo[3,2-c]pyridine-2-carboxamide and L-tartaric acid] | cocrystal * | cocrystal * | free form (solvate) | cocrystal * + free form (solvate) | no precipitate | free form (solvate) | free form (solvate) | free form (solvate) | free form (solvate) | cocrystal * + free form (solvate) | cocrystal * | free form (solvate) | free form (solvate) | cocrystal * | free form (solvate) | cocrystal * | cocrystal* + free form (solvate) | cocrystal * | cocrystal* + free form (solvate) | cocrystal* + free form (solvate) | Crystal form of precipitate obtained by recrystallization experiment [1, 11]: cocrystal *; Crystal form of precipitate obtained by recrystallization experiment [1, 12]: cocrystal *; Crystal form of residue after slurry experiment ([2]; ethanol): cocrystal * + free form (solvate); Crystal form of residue after slurry experiment ([2]; ethyl acetate): cocrystal* + free form (solvate); Crystal form of residue after slurry experiment ([2]; methyl ethyl ketone): cocrystal* + free form (solvate); Crystal form of residue after slurry experiment ([2]; tetrahydrofuran): cocrystal* + free form (solvate)
3 | CCc1cc2c(c(OCC(F)(F)F)c(C(=O)NC3CCN(C(=O)CO)CC3)n2C)c(=O)n1CC(=O)c1ccccc1.O=C(O)C[C@H](O)C(=O)O [cocrystal with L-malic acid, cocrystal of 6-ethyl-N-[1-(hydroxyacetyl)piperidin-4-yl]-1-methyl-4-oxo-5-(2-oxo-2-phenylethyl)-3-(2,2,2-trifluoroethoxy)-4,5-dihydro-1H-pyrrolo[3,2-c]pyridine-2-carboxamide and L-malic acid] | no precipitate | cocrystal * | free form (solvate) | free form (solvate) | no precipitate | free form (solvate) | free form (solvate) | free form (solvate) | free form (solvate) | free form (solvate) | cocrystal * + free form (solvate) | free form (solvate) | free form (solvate) | cocrystal + free form (solvate) | free form (solvate) | cocrystal + free form (solvate) | cocrystal * | cocrystal * | free form (solvate) | cocrystal* + free form (solvate) | Crystal form of precipitate obtained by recrystallization experiment [1, 11]: free form (solvate); Crystal form of precipitate obtained by recrystallization experiment [1, 12]: cocrystal * + free form (solvate); Crystal form of residue after slurry experiment ([2]; ethanol): cocrystal *; Crystal form of residue after slurry experiment ([2]; ethyl acetate): cocrystal* + free form (solvate); Crystal form of residue after slurry experiment ([2]; methyl ethyl ketone): cocrystal* + free form (solvate); Crystal form of residue after slurry experiment ([2]; tetrahydrofuran): free form (solvate)
